IC50 data for 24 compounds are collected here from patent US20210040118A1, “IMMUNOMODULATORS, COMPOSITIONS AND METHODS THEREOF” (BETTA PHARMACEUTICALS CO., LTD, priority 2018, published 2021).

Molecules are shown by their SMILES.

Usually IC50 stands for the point on the concentration scale where inhibition reaches its midpoint.

This test deals with T1, PD-1/PD-L1 (Homo sapiens, UniProt Q9NZQ7).
T1 construct: Recombinant human PD-L1 protein (19-238) with a His-tag at the C-terminus; purchased AcroBiosystems PD1-H5229 (PD-L1); PD1-H5257 (PD-1)
T1 sequence (Q9NZQ7 19-238): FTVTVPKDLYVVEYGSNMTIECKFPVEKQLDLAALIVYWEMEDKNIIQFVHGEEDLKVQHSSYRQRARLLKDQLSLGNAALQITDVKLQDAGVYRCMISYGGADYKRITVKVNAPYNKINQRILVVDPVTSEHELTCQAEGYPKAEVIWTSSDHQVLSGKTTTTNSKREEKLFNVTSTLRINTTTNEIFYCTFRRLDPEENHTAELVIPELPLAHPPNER
The test can be described thus: PD-1/PD-L1 homogenous time-resolved fluorescence (HTRF) binding assay. The settings on record: recombinant human PD-L1 (19-238) His-tag / human PD-1 (25-167) Fc tag, class symbols. The method in brief: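 HTRF binding of human PD-1 (25-167, Fc-tagged) at 3 nM and PD-L1 (19-238, His-tagged) at 10 nM, preincubated 40 min with inhibitor in PBS pH 7.4, 0.05% Tween-20, 0.1% BSA, 1% DMSO, 25°C. Eu anti-IgG (1 nM) and anti-His-APC (20 nM) added, 60 min; 665/620 nm ratio; IC50 from curve fit.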
Turning to `Cc1oc(=O)oc1COC(=O)N1CCc2nc(C(=O)Nc3cccc(-c4cccc(NC(=O)c5ccc6c(n5)CCN(C(=O)OCc5oc(=O)oc5C)C6)c4C)c3C)ccc2C1` [Example 184, bis((5-methyl-2-oxo-1,3-dioxol-4-yl)methyl) 2,2′-(((2,2′-dimethyl-[1,1′-biphenyl]-3,3′-diyl)bis(azanediyl))bis(carbonyl))bis(7,8-dihydro-1,6-naphthyridine-6(5H)-carboxylate)], the IC50 was > 200 nM. For the compound `Cc1nc(C(=O)Nc2cccc(-c3cccc(NC(=O)c4nc(C)c(CN[C@H](C(=O)O)C5CCOCC5)s4)c3C)c2C)sc1CN[C@H](C(=O)O)C1CCOCC1` [Example 53, (2S,2'S)-2,2′-(2,2′-(2,2′-dimethylbiphenyl-3,3′-diyl)bis(azanediyl)bis(oxomethylene)bis(4-methylthiazole-5,2-diyl))bis(methylene)bis(azanediyl)bis(2-(tetrahydro-2H-pyran-4-yl)acetic acid)], the IC50 is < 25 nM. Under `Cc1c(Nc2nccc3cc(CNCC(N)=O)cnc23)cccc1-c1cccc2c1CCN2C(=O)C1=NC2CCN(CC(=O)O)CC2S1` (stereo not drawn) [Example 164, 2-(2-(4-(3-((3-(((2-amino-2-oxoethyl)amino)methyl)-1,7-naphthyridin-8-yl)amino)-2-methylphenyl)indoline-1-carbonyl)-3a,6,7,7a-tetrahydrothiazolo[5,4-c]pyridin-5(4H)-yl)acetic acid] stands < 25 nM; under `Cc1c(NC(=O)c2nnc(CN)s2)cccc1-c1cccc(NC(=O)c2nnc(CN)s2)c1C` [Example 20, N,N′-(2,2′-dimethyl-[1,1′-biphenyl]-3,3′-diyl)bis(5-(aminomethyl)-1,3,4-thiadiazole-2-carboxamide)], < 25 nM; under `Cc1nc(C(=O)N2CCc3c(-c4cccc5c4CCN5C(=O)c4ncc(CN(C)CCO)s4)cccc32)sc1CN(C)C` [Example 115, (5-((dimethylamino)methyl)-4-methylthiazol-2-yl)(1′-(5-(((2-hydroxyethyl)(methyl)amino)methyl)thiazole-2-carbonyl)-[4,4′-biindolin]-1-yl)methanone], < 25 nM. Consider `Cc1nc(C(=O)Nc2cccc(-c3cccc(NC(=O)c4nc(C)c(CN5CCCC5)s4)c3C)c2C)sc1CN1CCCC1` [Example 28, N,N′-(2,2′-dimethyl-[1,1′-biphenyl]-3,3′-diyl)bis(4-methyl-5-(pyrrolidin-1-ylmethyl)thiazole-2-carboxamide)], for which the IC50 was < 25 nM. Next, `Cc1c(Nc2nccc3cc(CNCC(=O)O)cnc23)cccc1-c1cccc2c1CCN2C(=O)C1=NC2CCN(CCC(=O)O)CC2S1` (stereo not drawn) [Example 161, 3-(2-(4-(3-((3-(((carboxymethyl)amino)methyl)-1,7-naphthyridin-8-yl)amino)-2-methylphenyl)indoline-1-carbonyl)-3a,6,7,7a-tetrahydrothiazolo[5,4-c]pyridin-5(4H)-yl)propanoic acid]: < 25 nM. On to `Cc1c(NC(=O)c2nc3c(s2)CN(C)CC3)cccc1-c1cccc(NC(=O)c2nc3c(s2)CN(C)CC3)c1Cl` [Example 49, N,N′-(2-chloro-2′-methylbiphenyl-3,3′-diyl)bis(5-methyl-4,5,6,7-tetrahydrothiazolo[5,4-c]pyridine-2-carboxamide)], for which the IC50 is < 25 nM. For the compound `Cc1c(NC(=O)c2cn3c(n2)CN(C(C)CO)CC3)cccc1-c1cccc(NC(=O)c2cn3c(n2)CN(C(C)CO)CC3)c1C` (stereo not drawn) [Example 36, N,N′-(2,2′-dimethyl-[1,1′-biphenyl]-3,3′-diyl)bis(7-(1-hydroxypropan-2-yl)-5,6,7,8-tetrahydroimidazo[1,2-a]pyrazine-2-carboxamide)], the IC50 is < 25 nM. As for `Cc1c(NC(=O)c2nc3c(s2)CN(C(C)C)CC3)cccc1-c1cccc(NC(=O)c2nc3c(s2)CN(C(C)C)CC3)c1C` [Example 77, N,N′-(2,2′-dimethyl-[1,1′-biphenyl]-3,3′-diyl)bis(5-isopropyl-4,5,6,7-tetrahydrothiazolo[5,4-c]pyridine-2-carboxamide)], the IC50 was 25 to 100 nM.

With `CNC(=O)CN1CCc2nc(C(=O)N3CCc4c(-c5cccc6c5CCN6C(=O)c5nc6c(s5)CN(CC(=O)O)CC6)cccc43)sc2C1` [Example 108, 2-(2-(1′-(5-(2-(methylamino)-2-oxoethyl)-4,5,6,7-tetrahydrothiazolo[5,4-c]pyridine-2-carbonyl)-[4,4′-biindoline]-1-carbonyl)-6,7-dihydrothiazolo[5,4-c]pyridin-5(4H)-yl)acetic acid], the IC50 is < 25 nM. Next, `Cc1ccc(-c2ccc(C)c(NC(=O)c3nc4c(s3)CNCC4)c2C)c(C)c1NC(=O)c1nc2c(s1)CNCC2` [Example 94, N,N′-(2,2′,4,4′-tetramethyl-[1,1′-biphenyl]-3,3′-diyl)bis(4,5,6,7-tetrahydrothiazolo[5,4-c]pyridine-2-carboxamide)]: < 25 nM; `Cc1nc(C(=O)Nc2cccc(-c3cccc4c3CCN4C(=O)c3nc(C)c(CN[C@H](C(=O)O)C4CCOCC4)s3)c2C)sc1CN[C@H](C(=O)O)C1CCOCC1` [Example 59, (S)-2-((2-(3-(1-(5-(((S)-carboxy(tetrahydro-2H-pyran-4-yl)methylamino)methyl)-4-methylthiazole-2-carbonyl)indolin-4-yl)-2-methylphenylcarbamoyl)-4-methylthiazol-5-yl)methylamino)-2-(tetrahydro-2H-pyran-4-yl)acetic acid]: < 25 nM; `CN(C)Cc1cnc(C(=O)N2CCc3c(-c4cccc5c4CCN5C(=O)c4ncc(CN(C)C)s4)cccc32)s1` [Example 112, [4,4′-biindoline]-1,1′-diylbis((5-((dimethylamino)methyl)thiazol-2-yl)methanone)]: < 25 nM. Next, `Cc1c(NC(=O)c2ccc3c(n2)CCN(CCN2CCOCC2)C3)cccc1-c1cccc(NC(=O)c2ccc3c(n2)CCN(CCN2CCOCC2)C3)c1C` [Example 176, N,N′-(2,2′-dimethyl-[1,1′-biphenyl]-3,3′-diyl)bis(6-(2-morpholinoethyl)-5,6,7,8-tetrahydro-1,6-naphthyridine-2-carboxamide)]: 25 to 100 nM; `Cc1c(NC(=O)c2ccc3c(n2)CCN(CC(=O)O)C3)cccc1-c1cccc(NC(=O)c2ccc3c(n2)CCN(CC(=O)O)C3)c1C` [Example 173, 2,2′-((((2,2′-dimethyl-[1,1′-biphenyl]-3,3′-diyl)bis(azanediyl))bis(carbonyl))bis(7,8-dihydro-1,6-naphthyridine-2,6(5H)-diyl))diacetic acid]: < 25 nM. Next, `Cc1c(Nc2nccc3cc(CNCC(=O)N(C)C)cnc23)cccc1-c1cccc2c1CCN2C(=O)C1=NC2CCN(CC(=O)O)CC2S1` (stereo not drawn) [Example 165, 2-(2-(4-(3-((3-(((2-(dimethylamino)-2-oxoethyl)amino)methyl)-1,7-naphthyridin-8-yl)amino)-2-methylphenyl)indoline-1-carbonyl)-3a,6,7,7a-tetrahydrothiazolo[5,4-c]pyridin-5(4H)-yl)acetic acid]: < 25 nM; `CS(=O)(=O)NCCN1C2CCC1c1sc(C(=O)N3CCc4c(-c5cccc6c5CCN6C(=O)c5nc6c(s5)C5CCC(C6)N5CCNS(C)(=O)=O)cccc43)nc1C2` [Example 126, N,N′-((([4,4′-biindoline]-1,1′-dicarbonyl)bis(5,6,7,8-tetrahydro-4H-5,8-epiminocyclohepta[d]thiazole-2,9-diyl))bis(ethane-2,1-diyl))dimethanesulfonamide]: < 25 nM. Consider `O=C(O)CN1CCc2sc(C(=O)N3CCc4c(-c5cccc6c5CCN6C(=O)c5nc6c(s5)CCN(CC(=O)O)C6)cccc43)nc2C1` [Example 119, 2,2′-(([4,4′-biindoline]-1,1′-dicarbonyl)bis(6,7-dihydrothiazolo[4,5-c]pyridine-2,5(4H)-diyl))diacetic acid], for which the IC50 is < 25 nM. Under `Cc1c(Nc2nccc3cc(CNCC(=O)O)cnc23)cccc1-c1cccc(Nc2nccc3cc(CN4CCC4)cnc23)c1C` [Example 149, ((8-((3′-((3-(azetidin-1-ylmethyl)-1,7-naphthyridin-8-yl)amino)-2,2′-dimethyl-[1,1′-biphenyl]-3-yl)amino)-1,7-naphthyridin-3-yl)methyl)glycine] stands < 25 nM; under `Cc1c(Nc2nccc3cc(CNCCO)cnc23)cccc1-c1cccc(Nc2nccc3cc(CNCC(=O)O)cnc23)c1C` [Example 139, ((8-((3′-((3-(((2-hydroxyethyl)amino)methyl)-1,7-naphthyridin-8-yl)amino)-2,2′-dimethyl-[1,1′-biphenyl]-3-yl)amino)-1,7-naphthyridin-3-yl)methyl)glycine], < 25 nM. Under `CN1CCc2nc(C(=O)N3CCc4c(-c5cccc6c5CCN6C(=O)c5nc6c(s5)CN(C)CC6)cccc43)sc2C1` [Example 83, [4,4′-biindoline]-1,1′-diylbis((5-methyl-4,5,6,7-tetrahydrothiazolo[5,4-c]pyridin-2-yl)methanone)] stands < 25 nM; under `CCOC(=O)CNC(C)c1cnc(C(=O)Nc2cccc(-c3cccc(NC(=O)c4cnc(C(C)NCC(=O)OCC)cn4)c3C)c2C)cn1` (stereo not drawn) [Example 179, diethyl 2,2′-((((((2,2′-dimethyl-[1,1′-biphenyl]-3,3′-diyl)bis(azanediyl))bis(carbonyl))bis(pyrazine-5,2-diyl))bis(ethane-1,1-diyl))bis(azanediyl))diacetate], 25 to 100 nM. Under `Cc1c(NC(=O)c2nnc(CNC(=N)N)s2)cccc1-c1cccc(NC(=O)c2nnc(CNC(=N)N)s2)c1C` [Example 37, N,N′-(2,2′-dimethyl-[1,1′-biphenyl]-3,3′-diyl)bis(5-(guanidinomethyl)-1,3,4-thiadiazole-2-carboxamide)] stands < 25 nM.
